According to patent US7074789B2, “Kinase inhibitors” (Amgen Inc., priority 1999, dated 2006):

Key:
Type in all cases: biochemical
Lyn = biological target: T1, Lyn (Homo sapiens, UniProt P07948); experiment: Kinase inhibition assay (33P transfer), Lyn; conditions: Table 6, Lyn-1 kinase inhibition class
T1 construct: Kinases are expressed as either kinase domains or full length constructs; made in house
In short: (§1)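 GST/His-fusion kinases, E. coli or High Five expressed, affinity purified; 33P-ATP, plate-coated poly(Glu,Tyr) 4:1 or poly(Arg,Ser) 3:1; 0.5% H3PO4 wash, scintillant, LSC.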

Src = biological target: T2, Src (Homo sapiens, UniProt P12931); experiment: Kinase inhibition assay (33P transfer), Src; conditions: Table 6, Src-1 kinase inhibition class
T2 construct: Kinases are expressed as either kinase domains or full length constructs; made in house
T2 sequence (P12931 whole entry, species assumed, the tested form may be a part): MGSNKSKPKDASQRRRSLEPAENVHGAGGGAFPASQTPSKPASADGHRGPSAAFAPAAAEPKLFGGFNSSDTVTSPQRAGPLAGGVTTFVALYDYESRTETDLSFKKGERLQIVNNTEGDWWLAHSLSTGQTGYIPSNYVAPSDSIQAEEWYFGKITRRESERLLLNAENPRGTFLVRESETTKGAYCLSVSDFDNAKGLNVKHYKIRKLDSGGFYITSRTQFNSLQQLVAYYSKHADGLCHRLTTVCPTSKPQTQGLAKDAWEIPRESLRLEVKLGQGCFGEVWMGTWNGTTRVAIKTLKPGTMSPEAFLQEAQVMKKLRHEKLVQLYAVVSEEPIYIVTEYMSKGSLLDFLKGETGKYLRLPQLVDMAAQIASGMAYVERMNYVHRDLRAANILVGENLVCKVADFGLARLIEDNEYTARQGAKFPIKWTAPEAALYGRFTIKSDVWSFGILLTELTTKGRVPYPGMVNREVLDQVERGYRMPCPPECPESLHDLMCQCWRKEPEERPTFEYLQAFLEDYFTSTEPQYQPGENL
In short: as §1

Zap-70 = biological target: T3, Zap-70 (Homo sapiens, UniProt P43403); experiment: Kinase inhibition assay (33P transfer), Zap-70; conditions: Table 3; read-out: Zap-1
T3 construct: Kinases are expressed as either kinase domains or full length constructs; made in house
T3 sequence (P43403 1-619): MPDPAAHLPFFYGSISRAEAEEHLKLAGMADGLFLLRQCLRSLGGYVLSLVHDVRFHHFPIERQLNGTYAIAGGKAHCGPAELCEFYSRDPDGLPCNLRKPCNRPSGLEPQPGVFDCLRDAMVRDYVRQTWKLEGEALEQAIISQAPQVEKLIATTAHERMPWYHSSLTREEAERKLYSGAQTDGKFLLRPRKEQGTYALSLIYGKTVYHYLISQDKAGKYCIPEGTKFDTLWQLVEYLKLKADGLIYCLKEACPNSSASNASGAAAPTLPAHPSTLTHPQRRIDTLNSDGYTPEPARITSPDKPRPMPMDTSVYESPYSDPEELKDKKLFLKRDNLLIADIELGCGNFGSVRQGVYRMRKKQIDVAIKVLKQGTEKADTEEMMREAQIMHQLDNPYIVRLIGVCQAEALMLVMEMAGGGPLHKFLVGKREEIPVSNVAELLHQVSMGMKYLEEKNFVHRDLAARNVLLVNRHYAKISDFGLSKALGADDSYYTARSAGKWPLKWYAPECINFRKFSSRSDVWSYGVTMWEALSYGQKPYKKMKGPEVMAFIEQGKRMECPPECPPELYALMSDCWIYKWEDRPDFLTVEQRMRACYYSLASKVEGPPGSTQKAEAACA
In short: (§2)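 33P-ATP transfer to coated synthetic polymer substrates; acid wash (0.5% H3PO4), scintillant, liquid scintillation count. Enzymes: His- or GST-fusion kinases from E. coli or High Five insect cells.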

ErbB2 = biological target: T4, ErbB2 (Homo sapiens, UniProt P04626); experiment: Kinase inhibition assay (33P transfer), ErbB2; conditions: read-out: ErbB2-2
T4 construct: Kinases are expressed as either kinase domains or full length constructs; made in house
T4 sequence (P04626 23-1255, species assumed): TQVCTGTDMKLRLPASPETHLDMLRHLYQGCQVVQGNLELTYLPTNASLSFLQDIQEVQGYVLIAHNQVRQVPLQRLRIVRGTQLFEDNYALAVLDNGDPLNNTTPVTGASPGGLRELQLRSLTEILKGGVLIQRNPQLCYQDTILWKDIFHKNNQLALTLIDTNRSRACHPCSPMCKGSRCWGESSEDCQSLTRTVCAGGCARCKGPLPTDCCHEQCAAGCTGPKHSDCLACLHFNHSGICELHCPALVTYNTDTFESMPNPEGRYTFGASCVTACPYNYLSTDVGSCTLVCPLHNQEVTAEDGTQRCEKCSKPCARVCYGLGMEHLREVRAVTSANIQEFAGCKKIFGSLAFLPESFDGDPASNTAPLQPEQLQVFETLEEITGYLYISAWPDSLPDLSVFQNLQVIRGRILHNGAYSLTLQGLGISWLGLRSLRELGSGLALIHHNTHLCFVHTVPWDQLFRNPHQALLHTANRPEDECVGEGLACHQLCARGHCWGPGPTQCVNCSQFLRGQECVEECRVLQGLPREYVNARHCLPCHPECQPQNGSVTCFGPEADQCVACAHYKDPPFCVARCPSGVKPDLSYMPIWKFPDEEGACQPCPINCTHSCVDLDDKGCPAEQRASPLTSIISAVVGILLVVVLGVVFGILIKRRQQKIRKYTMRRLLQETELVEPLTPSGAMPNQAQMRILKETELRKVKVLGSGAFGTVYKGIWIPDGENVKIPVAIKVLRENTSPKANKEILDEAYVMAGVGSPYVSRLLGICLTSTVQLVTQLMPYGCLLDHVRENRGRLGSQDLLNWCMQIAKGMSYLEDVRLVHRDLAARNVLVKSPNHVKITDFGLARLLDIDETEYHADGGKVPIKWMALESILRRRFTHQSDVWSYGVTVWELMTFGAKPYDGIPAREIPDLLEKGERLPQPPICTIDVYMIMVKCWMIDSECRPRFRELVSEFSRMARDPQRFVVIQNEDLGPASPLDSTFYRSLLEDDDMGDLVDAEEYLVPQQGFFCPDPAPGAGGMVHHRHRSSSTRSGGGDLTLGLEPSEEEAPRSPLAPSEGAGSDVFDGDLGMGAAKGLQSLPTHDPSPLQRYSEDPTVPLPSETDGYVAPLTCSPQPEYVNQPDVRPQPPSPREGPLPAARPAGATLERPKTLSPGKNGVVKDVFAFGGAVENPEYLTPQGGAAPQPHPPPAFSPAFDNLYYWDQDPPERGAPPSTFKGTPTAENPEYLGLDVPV
In short: as §1

Kdr = biological target: T5, Kdr (Homo sapiens, UniProt P35968); experiment: Kinase inhibition assay (33P transfer), Kdr; conditions: Table 3; read-out: KDR-1
T5 construct: Kinases are expressed as either kinase domains or full length constructs; made in house
T5 sequence (P35968 20-1356, species assumed): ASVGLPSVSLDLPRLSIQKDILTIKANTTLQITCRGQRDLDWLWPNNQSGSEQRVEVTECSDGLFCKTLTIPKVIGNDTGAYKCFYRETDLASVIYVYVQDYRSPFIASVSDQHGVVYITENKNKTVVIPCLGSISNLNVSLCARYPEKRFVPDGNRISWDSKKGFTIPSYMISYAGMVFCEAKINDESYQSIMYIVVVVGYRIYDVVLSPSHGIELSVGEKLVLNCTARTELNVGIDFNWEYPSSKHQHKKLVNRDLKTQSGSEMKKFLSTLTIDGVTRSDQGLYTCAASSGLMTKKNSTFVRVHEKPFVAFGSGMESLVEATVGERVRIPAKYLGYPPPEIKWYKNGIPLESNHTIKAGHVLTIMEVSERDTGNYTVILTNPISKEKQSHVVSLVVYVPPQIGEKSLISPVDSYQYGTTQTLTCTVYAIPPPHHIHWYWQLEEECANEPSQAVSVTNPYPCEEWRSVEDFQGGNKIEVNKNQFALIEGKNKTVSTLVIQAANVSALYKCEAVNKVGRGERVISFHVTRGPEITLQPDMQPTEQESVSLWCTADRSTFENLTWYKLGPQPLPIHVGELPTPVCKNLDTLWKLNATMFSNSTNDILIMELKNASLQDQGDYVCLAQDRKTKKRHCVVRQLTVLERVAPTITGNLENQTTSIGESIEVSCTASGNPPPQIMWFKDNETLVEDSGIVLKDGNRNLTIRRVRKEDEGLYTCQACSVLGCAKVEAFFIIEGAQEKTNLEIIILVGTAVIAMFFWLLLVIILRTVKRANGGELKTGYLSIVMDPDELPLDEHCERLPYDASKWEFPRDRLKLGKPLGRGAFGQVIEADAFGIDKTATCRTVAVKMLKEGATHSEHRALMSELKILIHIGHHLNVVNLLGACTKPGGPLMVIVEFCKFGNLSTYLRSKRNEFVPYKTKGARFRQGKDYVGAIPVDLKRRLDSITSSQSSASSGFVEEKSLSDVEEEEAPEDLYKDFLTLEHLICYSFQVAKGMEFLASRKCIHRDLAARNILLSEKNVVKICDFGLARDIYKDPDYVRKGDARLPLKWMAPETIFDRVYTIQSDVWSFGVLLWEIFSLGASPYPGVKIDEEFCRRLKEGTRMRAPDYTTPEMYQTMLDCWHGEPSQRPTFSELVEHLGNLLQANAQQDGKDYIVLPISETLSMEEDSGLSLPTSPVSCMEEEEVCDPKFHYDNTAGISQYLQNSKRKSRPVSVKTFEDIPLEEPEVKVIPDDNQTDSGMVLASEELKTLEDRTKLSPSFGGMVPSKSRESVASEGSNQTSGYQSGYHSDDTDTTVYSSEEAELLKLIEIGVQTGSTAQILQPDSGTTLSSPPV
In short: as §2

AKT = biological target: T6, AKT (Homo sapiens, UniProt Q9Y243); experiment: Kinase inhibition assay (33P transfer), AKT; conditions: Table 2, kinase inhibition class; read-out: AKT3-1
T6 construct: Kinases are expressed as either kinase domains or full length constructs; made in house
T6 sequence (Q9Y243 whole entry, the tested form may be a part): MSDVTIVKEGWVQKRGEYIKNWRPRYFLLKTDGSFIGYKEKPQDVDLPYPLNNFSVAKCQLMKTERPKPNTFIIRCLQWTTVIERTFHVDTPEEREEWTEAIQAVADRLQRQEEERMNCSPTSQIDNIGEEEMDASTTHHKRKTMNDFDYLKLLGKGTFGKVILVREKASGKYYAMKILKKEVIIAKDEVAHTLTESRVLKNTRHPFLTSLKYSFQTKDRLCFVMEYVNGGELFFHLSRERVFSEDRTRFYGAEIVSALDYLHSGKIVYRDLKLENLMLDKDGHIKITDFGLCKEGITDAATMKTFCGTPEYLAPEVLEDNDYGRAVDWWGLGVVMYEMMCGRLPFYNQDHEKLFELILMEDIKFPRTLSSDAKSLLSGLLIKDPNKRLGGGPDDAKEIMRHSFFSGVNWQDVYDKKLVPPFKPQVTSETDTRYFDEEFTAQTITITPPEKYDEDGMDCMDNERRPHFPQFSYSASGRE
In short: as §2

EPHB4 = biological target: T7, EPHB4 (Homo sapiens, UniProt P54760); experiment: Kinase inhibition assay (33P transfer), EPHB4; conditions: read-out: EPHB4-1
T7 construct: Kinases are expressed as either kinase domains or full length constructs; made in house
T7 sequence (P54760 16-987): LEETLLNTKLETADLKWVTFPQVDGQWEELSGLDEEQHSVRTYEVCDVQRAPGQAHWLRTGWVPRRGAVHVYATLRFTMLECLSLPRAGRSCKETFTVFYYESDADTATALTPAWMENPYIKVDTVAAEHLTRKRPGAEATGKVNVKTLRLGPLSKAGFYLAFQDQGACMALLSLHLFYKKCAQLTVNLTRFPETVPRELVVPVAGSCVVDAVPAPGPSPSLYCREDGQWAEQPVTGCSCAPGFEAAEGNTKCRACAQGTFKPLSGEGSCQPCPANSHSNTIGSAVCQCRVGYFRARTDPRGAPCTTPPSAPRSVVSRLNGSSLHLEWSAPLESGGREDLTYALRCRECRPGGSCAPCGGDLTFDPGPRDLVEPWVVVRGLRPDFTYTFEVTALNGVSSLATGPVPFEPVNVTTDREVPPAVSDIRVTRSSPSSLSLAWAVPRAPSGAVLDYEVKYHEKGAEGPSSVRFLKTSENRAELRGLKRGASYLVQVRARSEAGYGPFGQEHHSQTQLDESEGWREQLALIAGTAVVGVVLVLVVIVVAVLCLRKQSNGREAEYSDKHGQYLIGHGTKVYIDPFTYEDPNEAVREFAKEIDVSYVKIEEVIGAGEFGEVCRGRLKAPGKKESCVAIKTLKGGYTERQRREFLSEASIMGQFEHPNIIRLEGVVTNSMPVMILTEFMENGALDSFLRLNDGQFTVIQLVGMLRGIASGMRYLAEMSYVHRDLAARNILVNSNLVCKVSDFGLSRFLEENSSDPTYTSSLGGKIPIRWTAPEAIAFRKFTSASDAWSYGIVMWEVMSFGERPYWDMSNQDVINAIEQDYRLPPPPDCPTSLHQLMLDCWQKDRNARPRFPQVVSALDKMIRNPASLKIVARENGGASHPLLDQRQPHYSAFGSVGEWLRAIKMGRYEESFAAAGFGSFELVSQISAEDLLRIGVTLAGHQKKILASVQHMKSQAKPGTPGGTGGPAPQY

Ret-1 = biological target: T8, Ret-1 (Homo sapiens, UniProt P07949); experiment: Kinase inhibition assay (33P transfer), Ret; conditions: Table 6, Ret-1 kinase inhibition class
T8 construct: Kinases are expressed as either kinase domains or full length constructs; made in house

T1 sequence (P07948 whole entry, species assumed, the tested form may be a part): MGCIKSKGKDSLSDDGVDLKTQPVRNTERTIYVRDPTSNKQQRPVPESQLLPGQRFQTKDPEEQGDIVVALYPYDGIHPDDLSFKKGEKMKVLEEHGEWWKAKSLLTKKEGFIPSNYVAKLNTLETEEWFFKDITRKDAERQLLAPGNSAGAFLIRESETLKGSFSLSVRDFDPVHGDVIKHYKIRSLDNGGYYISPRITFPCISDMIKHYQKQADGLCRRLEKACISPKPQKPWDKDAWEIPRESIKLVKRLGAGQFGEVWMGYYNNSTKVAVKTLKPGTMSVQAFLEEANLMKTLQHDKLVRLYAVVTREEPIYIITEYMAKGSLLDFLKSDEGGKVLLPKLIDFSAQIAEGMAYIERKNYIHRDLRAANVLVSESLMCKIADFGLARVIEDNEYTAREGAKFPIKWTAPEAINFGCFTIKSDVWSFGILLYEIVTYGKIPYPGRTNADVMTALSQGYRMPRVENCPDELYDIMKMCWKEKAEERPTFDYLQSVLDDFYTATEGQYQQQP

Row | Structure (SMILES) | IC50 (Lyn) | IC50 (Src) | IC50 (Zap-70) | IC50 (ErbB2) | IC50 (Kdr) | IC50 (AKT) | IC50 (EPHB4) | IC50 (Ret-1)
1 | COc1cc(Nc2ncnc(Nc3ccc(C)c(O)c3)n2)cc(OC)c1OC [Compound 83] | < 1.04 µM | < 1.04 µM | > 11.7 µM | < 1.04 µM | < 1.04 µM | > 11.7 µM | 1.04 to 6.26 µM | < 1.04 µM
2 | COc1cc(Nc2ncnc(Nc3cc(-c4ccccc4)n[nH]3)n2)cc(OC)c1OC [Compound 102] | < 0.954 µM | < 0.954 µM | > 10.7 µM | 0.954 to 5.72 µM | < 0.954 µM | > 10.7 µM | < 0.954 µM | 0.954 to 5.72 µM
3 | COc1cccc(Nc2ncnc(Nc3cc(OC)c(OC)c(OC)c3)n2)c1 [Compound 87] | 1.04 to 6.26 µM | 1.04 to 6.26 µM | 9.13 to 11.7 µM | < 1.04 µM | 1.04 to 6.26 µM | > 11.7 µM | > 11.7 µM | 1.04 to 6.26 µM
4 | COc1cc(Nc2ncnc(Nc3cccc4ccccc34)n2)cc(OC)c1OC [Compound 98] | 0.991 to 5.95 µM | > 11.2 µM | > 11.2 µM | < 0.991 µM | < 0.991 µM | > 11.2 µM | > 11.2 µM | > 11.2 µM
5 | COc1cc(Nc2ncnc(Nc3cccc4cccnc34)n2)cc(OC)c1OC [Compound 97] | 0.989 to 5.93 µM | > 11.1 µM | > 11.1 µM | > 11.1 µM | < 0.989 µM | > 11.1 µM | > 11.1 µM | 0.989 to 5.93 µM
6 | COc1cc(Nc2ncnc(Nc3ccc4[nH]ccc4c3)n2)cc(OC)c1OC [Compound 928] | < 1.02 µM | < 1.02 µM | > 11.5 µM | < 1.02 µM | < 1.02 µM | 8.92 to 11.5 µM | < 1.02 µM | < 1.02 µM
7 | COc1cc(Nc2ncnc(Nc3ccc(OCc4ccccc4)cc3)n2)cc(OC)c1OC [Compound 926] | 0.871 to 5.22 µM | 0.871 to 5.22 µM | 5.22 to 7.62 µM |  | < 0.871 µM | > 9.79 µM | > 9.79 µM | 7.62 to 9.79 µM
8 | COc1cc(Nc2ncnc(Nc3ccc(O)cc3Cl)n2)cc(OC)c1OC [Compound 77] | < 0.991 µM | 0.991 to 5.94 µM | > 11.1 µM |  | < 0.991 µM | > 11.1 µM | 0.991 to 5.94 µM | 0.991 to 5.94 µM
9 | COc1cc(Nc2ncnc(Nc3ccccc3F)n2)cc(OC)c1OC [Compound 65] | 1.08 to 6.46 µM | 1.08 to 6.46 µM | > 12.1 µM |  | 1.08 to 6.46 µM | > 12.1 µM | 6.46 to 9.42 µM | 1.08 to 6.46 µM
10 | COc1cc(Nc2ncnc(Nc3cc(Cl)c(O)c(Cl)c3)n2)cc(OC)c1OC [Compound 68] | < 0.913 µM | < 0.913 µM | > 10.3 µM |  | < 0.913 µM | > 10.3 µM | 0.913 to 5.48 µM | 0.913 to 5.48 µM
11 | COc1cc(Nc2ncnc(Nc3ccc(C(N)=O)cc3)n2)cc(OC)c1OC [Compound 33] | 1.01 to 6.05 µM | 1.01 to 6.05 µM | > 11.4 µM |  | 1.01 to 6.05 µM | > 11.4 µM | > 11.4 µM | > 11.4 µM
12 | O=C1OCc2ccc(Nc3ncnc(Nc4cc(-c5ccco5)n[nH]4)n3)cc21 [Compound 364] | 9.32 to 12 µM | > 12 µM | > 12 µM |  | < 1.07 µM | > 12 µM | 1.07 to 6.39 µM | 1.07 to 6.39 µM
13 | COc1ccc(Nc2ncnc(Nc3cc(OC)c(OC)c(OC)c3)n2)cc1 [Compound 89] | 1.04 to 6.26 µM | 6.26 to 9.13 µM | > 11.7 µM |  | < 1.04 µM | > 11.7 µM | > 11.7 µM | 1.04 to 6.26 µM
14 | COc1ccccc1Nc1ncnc(Nc2cc(OC)c(OC)c(OC)c2)n1 [Compound 90] | < 1.04 µM | 1.04 to 6.26 µM | > 11.7 µM |  | < 1.04 µM | > 11.7 µM | 1.04 to 6.26 µM | 1.04 to 6.26 µM
15 | COc1cc(Nc2ncnc(Nc3cccc(O)c3)n2)cc(OC)c1OC [Compound 78] | < 1.08 µM | < 1.08 µM | > 12.2 µM |  | < 1.08 µM | > 12.2 µM | < 1.08 µM | < 1.08 µM
16 | COc1cc(Nc2ncnc(Nc3ccc4[nH]ncc4c3)n2)cc(OC)c1OC [Compound 79] | < 1.02 µM | < 1.02 µM | > 11.4 µM |  | < 1.02 µM | > 11.4 µM | < 1.02 µM | > 11.4 µM
17 | COC(=O)c1cccc(Nc2ncnc(Nc3cc(-c4ccco4)n[nH]3)n2)c1 [Compound 344] | > 11.9 µM | > 11.9 µM | > 11.9 µM |  | < 1.06 µM | > 11.9 µM | 1.06 to 6.36 µM | 1.06 to 6.36 µM
18 | COc1cc(Nc2ncnc(Nc3ccc(N(C)C)cc3)n2)cc(OC)c1OC [Compound 27] | 1.01 to 6.05 µM | 1.01 to 6.05 µM | > 11.4 µM |  | < 1.01 µM | > 11.4 µM | > 11.4 µM | 1.01 to 6.05 µM
